Patent US10617680B2 (CELGENE QUANTICEL RESEARCH, INC., priority 2017, dated 2020)
Where two headings read alike, the source gives them in different places.

Target: CBP (Homo sapiens (Human), UniProt Q92793)
Test: In vitro CBP inhibition (AlphaScreen, biotinylated H4-tetraacetyl peptide)
Format: binding
In short: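 His-tagged CBP expressed in E. coli (50 nM final) incubated with biotinylated H4K5/8/12/16(Ac) peptide (20 nM final) in 50 mM HEPES pH 7.3, 10 mM NaCl, 0.25 mM TCEP, 0.1% BSA, 0.005% Brij-35, 0.4% DMSO, 20 min at room temp.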

[1] = AlphaScreen, Table 29, read-out: CBP IC50

CBP, sequence (Q92793 1081-1197): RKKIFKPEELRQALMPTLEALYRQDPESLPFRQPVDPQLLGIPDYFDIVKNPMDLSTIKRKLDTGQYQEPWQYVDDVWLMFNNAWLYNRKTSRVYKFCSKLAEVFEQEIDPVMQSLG

SMILES	IC50 [1]	IC50
CCOc1cc(=O)n(C)cc1-c1cnn(-c2cc(Oc3ccccc3)ccc2C#N)c1 [Example 183, 2-[4-(4-Ethoxy-1-methyl-6-oxo-1,6-dihydro-pyridin-3-yl)-pyrazol-1-yl]-4-phenoxy-benzonitrile]	< 500 nM	
CCOc1cc(=O)n(C)cc1-c1cnn(-c2ccccc2C#N)c1 [Example 281, 2-(4-(4-ethoxy-1-methyl-6-oxo-1,6-dihydropyridin-3-yl)-1H-pyrazol-1-yl)benzonitrile]	< 500 nM	
CCOc1cc(=O)n(C)cc1-c1cnn(Cc2ccc(C(C)C)cc2)c1 [Example 101, 4-ethoxy-5-[1-(4-isopropyl-benzyl)-1H-pyrazol-4-yl]-1-methyl-1H-pyridin-2-one]	< 500 nM	
Cn1cc(-c2cc(=O)n(C)cc2-c2cnn(-c3ccccc3C(=O)O)c2)cn1 [Example 208, 2-{4-[1-Methyl-4-(1-methyl-1H-pyrazol-4-yl)-6-oxo-1,6-dihydro-pyridin-3-yl]-pyrazol-1-yl}-benzoic acid]	< 500 nM	
Cn1cc(-c2cnn(Cc3ccccc3)c2)c(-n2ccc(C#N)c2)cc1=O [Example 80, 1-(5-(1-benzyl-1H-pyrazol-4-yl)-1-methyl-2-oxo-1,2-dihydropyridin-4-yl)-1H-pyrrole-3-carbonitrile]	< 500 nM	
CCNc1ccc(-c2cc(=O)n(C)cc2-c2cnn(-c3cccc(F)c3C#N)c2)cn1 [Example 344, 2-(4-(6-(ethylamino)-1′-methyl-6′-oxo-1′,6′-dihydro-[3,4′-bipyridin]-3′-yl)-1H-pyrazol-1-yl)-6-fluorobenzonitrile]	< 500 nM	
Cn1cc(-c2cnn(-c3ccccc3C(=O)NC#N)c2)c(-c2ccc(Cl)cc2)cc1=O [Example 291, 2-(4-(4-(4-chlorophenyl)-1-methyl-6-oxo-1,6-dihydropyridin-3-yl)-1H-pyrazol-1-yl)-N-cyanobenzamide]	< 500 nM	
Cn1cc(-c2cnn(-c3ccccc3C#N)c2)c(-c2cc[nH]c(=O)c2)cc1=O [Example 205, 2-[4-(1-Methyl-6,2′-dioxo-1,6,1′,2′-tetrahydro-[4,4′]bipyridinyl-3-yl)-pyrazol-1-yl]-benzonitrile]	< 500 nM	
CCSc1cc(=O)n(C)cc1-c1cnn(Cc2ccccc2)c1 [Example 168, 5-(1-Benzyl-1H-pyrazol-4-yl)-4-ethylsulfanyl-1-methyl-1H-pyridin-2-one]	< 500 nM	
Cn1cc(-c2cnn(Cc3ccccc3)c2)c(-c2ccccc2Cl)cc1=O [Example 123, 5-(1-benzyl-1H-pyrazol-4-yl)-4-(2-chlorophenyl)-1-methyl-pyridin-2(1H)-one]		500 to 5000 nM
Cn1cc(-c2cnn(Cc3ccccn3)c2)ccc1=O [Example 5, 1-methyl-5-(1-(pyridin-2-ylmethyl)-1H-pyrazol-4-yl)pyridin-2(1H)-one]	500 to 5000 nM	
Cc1cc(-c2cnn(-c3ccccc3C#N)c2)cn(C)c1=O [Example 254, 2-[4-(1,5-Dimethyl-6-oxo-1,6-dihydro-pyridin-3-yl)-pyrazol-1-yl]-benzonitrile]	< 500 nM	
COc1cc(-c2cc(=O)n(C)cc2-c2cnn(-c3cccc(Cl)c3C#N)c2)ccc1C [Example 279, 2-chloro-6-(4-(4-(3-methoxy-4-methylphenyl)-1-methyl-6-oxo-1,6-dihydropyridin-3-yl)-1H-pyrazol-1-yl)benzonitrile]	< 500 nM	
Cn1cc(-c2cnn(-c3ccccc3C#N)c2)c(-c2c[nH]c(=O)c(F)c2)cc1=O [Example 240, 2-(4-(5-fluoro-1′-methyl-6,6′-dioxo-1,1′,6,6′-tetrahydro-[3,4′-bipyridin]-3′-yl)-1H-pyrazol-1-yl)benzonitrile]	< 500 nM	
CC(C)c1ccc(-c2cc(=O)n(C)cc2-c2cnn(-c3cccc(F)c3C#N)c2)cn1 [Example 375, 2-fluoro-6-[4-[4-(6-isopropyl-3-pyridyl)-1-methyl-6-oxo-3-pyridyl]pyrazol-1-yl]benzonitrile]	< 500 nM	
Cn1cc(-c2cnn(Cc3ccccc3)c2)c(-n2ccc(C(=O)O)c2)cc1=O [Example 79, 1-(5-(1-benzyl-1H-pyrazol-4-yl)-1-methyl-2-oxo-1,2-dihydropyridin-4-yl)-1H-pyrrole-3-carboxylic acid]	< 500 nM	
Cn1cc(-c2cnn(-c3ccccc3C#N)c2)c(-c2cccnc2)cc1=O [Example 237, 2-[4-(1′-Methyl-6′-oxo-1′,6′-dihydro-[3,4′]bipyridinyl-3′-yl)-pyrazol-1-yl]-benzonitrile]	< 500 nM	
Cn1cc(-c2cnn(Cc3ccccc3)c2)c(N2CCOCC2)cc1=O [Example 67, 5-(1-benzyl-1H-pyrazol-4-yl)-1-methyl-4-morpholino-pyridin-2(1H)-one]	< 500 nM	
Cn1cc(-c2cnn(Cc3ccccc3)c2)c(OCC#N)cc1=O [Example 167, [5-(1-Benzyl-1H-pyrazol-4-yl)-1-methyl-2-oxo-1,2-dihydro-pyridin-4-yloxy]-acetonitrile]	< 500 nM	
Cn1cc(-c2cnn(-c3cccc(Cl)c3C#N)c2)c(-c2ccc(OC(F)F)nc2)cc1=O [Example 354, 2-chloro-6-(4-(6-(difluoromethoxy)-1′-methyl-6′-oxo-1′,6′-dihydro-[3,4′-bipyridin]-3′-yl)-1H-pyrazol-1-yl)benzonitrile]	< 500 nM	

SMILES	IC50 [1]	IC50
Cn1cc(-c2cnn(-c3ccccc3-c3nnn[nH]3)c2)c(-c2ccc(Cl)cc2)cc1=O [Example 297, 5-(1-(2-(1H-tetrazol-5-yl)phenyl)-1H-pyrazol-4-yl)-4-(4-chlorophenyl)-1-methylpyridin-2(1H)-one]	< 500 nM	
Cn1cc(-c2cc(=O)n(C)cc2-c2cnn(-c3ccccc3-c3nnn[nH]3)c2)cn1 [Example 300, 1-Methyl-4-(1-methyl-1H-pyrazol-4-yl)-5-{1-[2-(1H-tetrazol-5-yl)-phenyl]-1H-pyrazol-4-yl}-1H-pyridin-2-one]	< 500 nM	
COc1ncc(-c2cc(=O)n(C)cc2-c2cnn(-c3ccccc3Cl)c2)cn1 [Example 315, 5-(1-(2-chlorophenyl)-1H-pyrazol-4-yl)-4-(2-methoxypyrimidin-5-yl)-1-methylpyridin-2(1H)-one]	< 500 nM	
Cn1cc(-c2cnn(-c3cccc(Cl)c3C#N)c2)c(-c2ccc(N3CCCC3)nc2)cc1=O [Example 349, 2-chloro-6-[4-[1-methyl-6-oxo-4-(6-pyrrolidin-1-yl-3-pyridyl)-3-pyridyl]pyrazol-1-yl]benzonitrile]	< 500 nM	
Cn1cc(-c2cnn(C(c3ccccc3)C3CC3)c2)ccc1=O (stereo not drawn) [Example 2]		500 to 5000 nM
Cn1cc(-c2cnn(Cc3ccccc3)c2)c(-c2ccsc2)cc1=O [Example 117, 5-(1-benzyl-1H-pyrazol-4-yl)-1-methyl-4-(thiophen-3-yl) pyridin-2(1H)-one]	< 500 nM	
Cn1cc(-c2cnn(-c3cccc(F)c3C#N)c2)c(-c2ccc(OCC3CC3)nc2)cc1=O [Example 360, 2-[4-[4-[6-(cyclopropylmethoxy)-3-pyridyl]-1-methyl-6-oxo-3-pyridyl]pyrazol-1-yl]-6-fluoro-benzonitrile]	< 500 nM	
CCNC(=O)c1ccn(-c2cc(=O)n(C)cc2-c2cnn(Cc3ccccc3)c2)c1 [Example 81, 1-(5-(1-benzyl-1H-pyrazol-4-yl)-1-methyl-2-oxo-1,2-dihydro-pyridin-4-yl)-N-ethyl-1H-pyrrole-3-carboxamide]	< 500 nM	
Cn1cc(-c2cnc(-c3ccccc3)o2)c(-c2ccccc2)cc1=O [Example 397, 1-methyl-4-phenyl-5-(2-phenyloxazol-5-yl)pyridin-2(1H)-one]	500 to 5000 nM	
CCOc1cc(=O)n(C)cc1-c1cnn(Cc2ccccc2C(=O)OC)c1 [Example 70, methyl 2-((4-(4-ethoxy-1-methyl-6-oxo-1,6-dihydropyridin-3-yl)-1H-pyrazol-1-yl)methyl)benzoate]	< 500 nM	
CCOc1cc(=O)n(C)cc1-c1cnn(-c2cccc(Cl)c2C#N)c1 [Example 178, 2-Chloro-6-[4-(4-ethoxy-1-methyl-6-oxo-1,6-dihydro-pyridin-3-yl)-pyrazol-1-yl]-benzonitrile]	< 500 nM	
CCOc1cc(=O)n(C)cc1-c1cnn(-c2cccc(C)c2C#N)c1 [Example 179, 2-[4-(4-Ethoxy-1-methyl-6-oxo-1,6-dihydro-pyridin-3-yl)-pyrazol-1-yl]-6-methyl-benzonitrile]	< 500 nM	
CC(C)Oc1cc(=O)n(C)cc1-c1cnn(-c2ccccc2C#N)c1 [Example 202, 2-[4-(4-Isopropoxy-1-methyl-6-oxo-1,6-dihydro-pyridin-3-yl)-pyrazol-1-yl]-benzonitrile]	< 500 nM	
CCOC(=O)c1nn(Cc2ccccc2)cc1-c1cc(C)c(=O)n(C)c1 [Example 198, 1-Benzyl-4-(1,5-dimethyl-6-oxo-1,6-dihydro-pyridin-3-yl)-1H-pyrazole-3-carboxylic acid ethyl ester]	< 500 nM	
COc1ccc(C(=O)O)c(-n2cc(-c3cn(C)c(=O)cc3-c3ccc(OC)nc3)cn2)c1 [Example 270, 4-Methoxy-2-[4-(6-methoxy-1′-methyl-6′-oxo-1′,6′-dihydro-[3,4′]bipyridinyl-3∝-yl)-pyrazol-1-yl]-benzoic acid]	< 500 nM	
Cc1ccc(-c2cc(=O)n(C)cc2-c2cnn(Cc3ccccc3)c2)cc1 [Example 112, 5-(1-benzyl-1H-pyrazol-4-yl)-1-methyl-4-(p-tolyl)pyridin-2(1H)-one]	< 500 nM	
CCc1cc(-c2cnn(-c3ccccc3C#N)c2)cn(C)c1=O [Example 256, 2-[4-(5-Ethyl-1-methyl-6-oxo-1,6-dihydro-pyridin-3-yl)-pyrazol-1-yl]-benzonitrile]	< 500 nM	
C[C@H](c1ccccc1)n1cc(-c2cn(C)c(=O)cc2N2CCCC2)cn1 [Example 55, (R)-1-methyl-5-(1-(1-phenylethyl)-1H-pyrazol-4-yl)-4-(pyrrolidin-1-yl)pyridin-2(1H)-one]	< 500 nM	
CC(=O)NC[C@H]1CCN(c2cc(=O)n(C)cc2-c2cnn(Cc3ccccc3)c2)C1 (stereo in doubt) [Example 90, N-{1-[5-(1-benzyl-1H-pyrazol-4-yl)-1-methyl-2-oxo-1,2-dihydro-pyridin-4-yl]-pyrrolidin-3-yl-methyl}-acetamide]	500 to 5000 nM	
